Where a SMILES comes first, the peptide text is derived from it. [ ]: non-standard residue; d: D form. Abu = CC[C@H](N)C(=O)O
Assays:
[1] = molecular target: T1, Interleukin-8 receptors, CXCR1/CXCR2 (Homo sapiens, UniProt P25025+P25024); test: Inhibitory activity against interleukin-8 receptor using [125I]IL8; type: protein assay
T1 sequence (P25025 whole entry): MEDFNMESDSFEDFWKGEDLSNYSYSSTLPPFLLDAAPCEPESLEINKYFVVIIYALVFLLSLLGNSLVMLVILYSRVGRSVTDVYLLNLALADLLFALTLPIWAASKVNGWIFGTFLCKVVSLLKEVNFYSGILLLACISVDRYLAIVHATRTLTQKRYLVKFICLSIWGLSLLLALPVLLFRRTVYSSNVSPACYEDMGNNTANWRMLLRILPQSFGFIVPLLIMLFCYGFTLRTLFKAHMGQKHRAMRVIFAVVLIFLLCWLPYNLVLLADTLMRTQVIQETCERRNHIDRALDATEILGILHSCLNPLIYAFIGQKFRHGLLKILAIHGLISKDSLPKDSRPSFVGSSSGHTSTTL
T1 sequence (P25024 whole entry): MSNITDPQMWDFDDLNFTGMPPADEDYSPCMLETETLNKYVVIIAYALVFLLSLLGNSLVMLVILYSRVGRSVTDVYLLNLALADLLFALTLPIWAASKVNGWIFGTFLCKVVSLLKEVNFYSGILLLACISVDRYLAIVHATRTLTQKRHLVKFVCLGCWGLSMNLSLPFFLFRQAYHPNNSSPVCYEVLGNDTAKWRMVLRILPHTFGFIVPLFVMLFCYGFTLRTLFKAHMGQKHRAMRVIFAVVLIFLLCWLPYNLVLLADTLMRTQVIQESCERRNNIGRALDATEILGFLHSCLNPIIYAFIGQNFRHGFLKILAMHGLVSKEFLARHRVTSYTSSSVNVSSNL

[2] = molecular target: T1, Interleukin-8 receptors, CXCR1/CXCR2; test: Compound was tested for inhibitory activity against Interleukin-8 receptor; type: protein assay

Row | Molecule | Ki [1] | IC50 [2]
1 | CC[C@H](NC(=O)[C@@H]1CCCN1C(=O)[C@H](CO)NC(=O)[C@H](Cc1ccc(O)cc1)NC(=O)[C@H](CC(=O)O)NC(=O)[C@H](CCC(=O)O)NC(=O)[C@H](CC(=O)O)NC(=O)[C@H](C)NC(=O)[C@@H]1CCCN1C(=O)[C@@H]1CCCN1C(=O)[C@H](CCSC)NC(C)=O)C(=O)N[C@@H](CCSC)C(=O)N[C@@H](CC(C)C)C(=O)N[C@@H](CCC(=O)O)C(=O)N[C@H](C(=O)N[C@@H](CCC(=O)O)C(=O)N[C@H](C(=O)N[C@@H](CC(C)C)C(=O)N[C@@H](CC(N)=O)C(=O)N[C@@H](CCCCN)C(=O)N[C@@H](Cc1ccc(O)cc1)C(N)=O)[C@@H](C)O)[C@@H](C)O (Ac-MPPADEDYSP[Abu]MLETETLNKY-NH2) | 0.3 µM | 
2 | CC[C@H](NC(=O)[C@H](CC(C)C)NC(=O)[C@H](Cc1ccccc1)NC(=O)[C@@H](NC(=O)CNC(=O)[C@H](Cc1ccccc1)NC(=O)[C@@H](NC(=O)[C@H](Cc1c[nH]c2ccccc12)NC(=O)CNC(=O)[C@H](CC(N)=O)NC(=O)[C@@H](NC(C)=O)C(C)C)[C@@H](C)CC)[C@@H](C)O)C(=O)N[C@@H](CCCCN)C(=O)N[C@H](C(N)=O)C(C)C (Ac-VNGWIFGTFL[Abu]KV-NH2) | > 30 µM | 
3 | CC[C@H](NC(=O)[C@@H](NC(C)=O)C(C)C)C(=O)N[C@@H](Cc1ccc(O)cc1)C(=O)N[C@@H](CCC(=O)O)C(=O)N[C@H](C(=O)N[C@@H](CC(C)C)C(=O)NCC(=O)N[C@@H](CC(N)=O)C(=O)N[C@@H](CC(=O)O)C(=O)N[C@H](C(=O)N[C@@H](C)C(=O)N[C@@H](CCCCN)C(=O)N[C@@H](Cc1c[nH]c2ccccc12)C(=O)N[C@@H](CCCN=C(N)N)C(=O)N[C@@H](CCSC)C(=O)N[C@H](C(=O)N[C@@H](CC(C)C)C(=O)N[C@@H](CCCN=C(N)N)C(=O)N[C@H](C(N)=O)[C@@H](C)CC)C(C)C)[C@@H](C)O)C(C)C (Ac-V[Abu]YEVLGNDTAKWRMVLRI-NH2) | > 1 µM | 
4 | CSCC[C@H](NC(C)=O)C(=O)N1CCC[C@H]1C(=O)N1CCC[C@H]1C(=O)N[C@@H](C)C(=O)N[C@@H](CC(=O)O)C(=O)N[C@@H](CCC(=O)O)C(=O)N[C@@H](CC(=O)O)C(=O)N[C@@H](Cc1ccc(O)cc1)C(=O)N[C@@H](CO)C(=O)N1CCC[C@H]1C(N)=O (stereo in doubt; form 1) | 1.7 µM | 
5 | CSCC[C@H](NC(C)=O)C(=O)N1CCC[C@H]1C(=O)N1CCC[C@H]1C(=O)N[C@@H](C)C(=O)N[C@@H](CC(=O)O)C(=O)N[C@@H](CCC(=O)O)C(=O)N[C@@H](CC(=O)O)C(=O)N[C@@H](Cc1ccc(O)cc1)C(=O)N[C@@H](CO)C(=O)N1CCC[C@H]1C(N)=O (stereo in doubt; form 2) | 1700 µM | 
6 | Ac-ADTLMRTQVIQETAERRNNIGRALDATEI-NH2 | > 1 µM | 
7 | Ac-AWDFDDLNFTGMPPADEDYSP-NH2 | 23 µM | 
8 | Ac-DDLNFTGMPPADEDYSP-NH2 | 190 µM | 
9 | Ac-DFDDLNFTGMPPADEDYSP-NH2 | 68 µM | 
10 | Ac-DLNFTGMPPADEDYSP-NH2 | 750 µM | 
11 | Ac-FDDLNFTGMPPADEDYSP-NH2 | 120 µM | 
12 | Ac-FRQAYHPNNSSP-NH2 | 10 µM | 
13 | Ac-FTGMPPADEDYSP-NH2 | 1850 µM | 
14 | Ac-GMPPADEDYSP-NH2 | 890 µM | 
15 | Ac-LNFTGMPPADEDYSP-NH2 | 3100 µM | 
16 | Ac-MADFDDLNFTGMPPADEDYSP-NH2 | 55 µM | 
17 | Ac-MSNITDPQMWDFDDLNFTG-NH2 | > 30 µM | 
18 | Ac-MWAFDDLNFTGMPPADEDYSP-NH2 | 28 µM | 
19 | Ac-MWDADDLNFTGMPPADEDYSP-NH2 | 49 µM | 

Row | Molecule | Ki [1] | IC50 [2]
20 | Ac-MWDFADLNFTGMPPADEDYSP-NH2 | 32 µM | 
21 | Ac-MWDFDALNFTGMPPADEDYSP-NH2 | 62 µM | 
22 | Ac-MWDFDDANFTGMPPADEDYSP-NH2 | 61 µM | 
23 | Ac-MWDFDDLAFTGMPPADEDYSP-NH2 | 42 µM | 
24 | Ac-MWDFDDLNATGMPPADEDYSP-NH2 | 107 µM | 
25 | Ac-MWDFDDLNFAGMPPADEDYSP-NH2 | 5 µM | 
26 | Ac-MWDFDDLNFTGAPPADEDYSP-NH2 | 14 µM | 
27 | Ac-MWDFDDLNFTGMAPADEDYSP-NH2 | 400 µM | 
28 | Ac-MWDFDDLNFTGMPAADEDYSP-NH2 | 27 µM | 
29 | Ac-MWDFDDLNFTGMPPAAEDYSP-NH2 | 55 µM | 
30 | Ac-MWDFDDLNFTGMPPADADYSP-NH2 | 29 µM | 
31 | Ac-MWDFDDLNFTGMPPADEAYSP-NH2 | 42 µM | 
32 | Ac-MWDFDDLNFTGMPPADEDASP-NH2 | 265 µM | 
33 | Ac-MWDFDDLNFTGMPPADEDYAP-NH2 | 15 µM | 
34 | Ac-MWDFDDLNFTGMPPADEDYSA-NH2 | 155 µM | 
35 | Ac-MWDFDDLNFTGMPPADEDYSP-NH2 | 13 µM | 19 µM
36 | Ac-NFTGMPPADEDYSP-NH2 | 2700 µM | 
37 | Ac-TGMPPADEDYSP-NH2 | 2050 µM | 
38 | Ac-WDFDDLNFTGMPPADEDYSP-NH2 | 27 µM | 

From ChEMBL document CHEMBL1150989, “Identification and characterisation of an inhibitor of interleukin-8: a receptor based approach” (Bioorg Med Chem Lett, 1996)
